These results are taken from patent US20090131513A1, “ANTI-INFLAMMATORY MODALITIES” (Novogen Research Pty Ltd., priority 2005, published 2009).

One series has as its system DSS-induced colitis. Kind of series: Murine model of DSS-induced colitis. The series is classed as in vivo, mice (BALB/c). Conditions: for maximum mean weight loss: vehicle 5%; for day at which clinical signs became evident: vehicle day 5; for colitis, in words: Experiment 1, 1 mg/kg throughout until day 17; for mean clinical score compared with vehicle, in words: Experiment 1, day 11; for day of switch from mean body weight loss to mean body weight gain: Experiment 1, vehicle day 15; for inflammation, in words: Experiment 2, 1 mg/kg for 10 days prior to DSS only; for colonic inflammation, in words: series of experiments, 1.0-1.25 mg/kg single oral dose per day. Here is the method: Female BALB/c mice, 6-7 weeks old, were housed for a minimum of one week before any experimental work began. To induce colitis, dextran sulphate sodium (DSS—molecular weight 40 kD, TdB Consultancy AB, Uppsala, Sweden (Dieleman et al. 1994), was administered fresh daily in the drinking water at a concentration of 4.5-5% for 5 days (Okayasu et al. 1990), after which water alone was given. This regime induced mild colitis, evidenced by diarrhea and rectal bleeding, the severity of which was scored, as well as a reduction in the length of the colon. Histologically, colonic inflammation was evidenced by ulceration and an infiltration of neutrophils into the mucosa, which was also scored. The systemic effect of the colitis causes weight loss, which was also monitored.
Either vehicle (PEG 400:PBS1:1) Compounds 1 or 4 were administered at a dose rate of 1 mg/kg throughout the experiment until the mice were killed at day 17.
Either Compounds 1 and 2, at a dose of 1 mg/kg or vehicle were administered for 10 days prior to DSS being added to the drinking water to induce colitis, after which test compound was stopped. DSS was administered for 5 days and the mice killed 8 days later (day 23).
Either the cis or the trans isomers of Compound 3 (Compound 3a and 3b respectively) at 1.25 mg/kg or vehicle were administered throughout the experiment until the mice were killed at day 17.

Series [1] deals with eicosanoid synthesis by the inflamed colon. Put plainly: PGE2 and TXB2 production by cultured colons from DSS colitis mice (Experiment 4). The class given is in vivo. Here is the method: Groups of mice (n=5) were dosed once daily with Compound 11 mg/kg or vehicle throughout the experiment, and killed either on day 6, 9 or 13. Colons were removed, opened longitudinally and washed in PBS with pen/strep (100 U/ml/100 μg/ml, Invitrogen) with added fungizone (2.5 ug/ml, Invitrogen). They were then cut into small portions and approximately 100 mg colon was placed into one well of a 24-well plate either in the presence or absence of ConA (10 μg/ml, Sigma) containing 1 ml modified RPMIc (pen/strep and fungizone as above) for 18-24 hours. Supernatant was collected, centrifuged and stored at −80° C. PGE2 and TXB2 in the culture supernatants were measured in triplicate by ELISA (Cayman Chemical).

The subject of series [2] is inflammed rat air pouches (serum-treated zymozan). Put plainly: Rat air pouch assay. The series is classed as in vivo, rats (Dark Agouti). Conditions: 0.5 ml of 100 μM into pouch; for Polymorphs in tissue sections (per 100 squares): 4 h; for Leucocytes in lavage fluid (×10^−7): lavage at 4 h. Here is the method:
An alternative assay used to measure anti-inflammatory efficacy is the air pouch model which involves the repeated subcutaneous injection of air into the dorsum of rats followed 24 h later by the intrapouch injection of an inflammatory stimulus (Gilroy et al. 1998).
Air pouches were raised on the dorsum of female Dark Agouti rats, approximately 7 weeks of age. To promote the formation of a cellular membrane lining the inside of each pouch, the pouches were maintained by re-inflating on days 2 and 5 after the initial injection of air. On re-inflation, the pouch was first deflated to ensure the needle was positioned correctly, before being re-inflated with 2 mL of sterile air. Using this protocol, the pouches remained inflated until use on day 7, when they were injected with 0.5 ml of either test compound at 100 μM or vehicle control. After 15 min, air pouches were injected with serum-treated zymozan (STZ-500 μg). Lavage of the air pouch (4×2 ml lavages) was performed at 4 h and leucocytes counted, after which the rats were killed, the air pouch excised and processed in formalin for histology. The sections were blinded to the person counting. Using a graticule with 100 squares and the 40× objective, the number of polymorphs were counted in the pouch lining at 10 different and non-adjacent sites. Group sizes were 5-6 rats. Data were analysed for statistical significance within each experiment and using an unpaired t test.

For the next series, the system named is NFκB promoter activity. Kind of series: Inhibition of NFκB promoter activity (β-lactamase reporter) in TNFα-stimulated THP-1 cells. The class given is cell-based, human. The settings on record: 5 h. Here is the method: Human macrophage THP-1 cells, modified to include the β-lactamase reporter gene, were seeded into wells of a 96-well plate (50×10^3 cells/well) in the presence of RPMI 1640 medium (70 μl). TNFα (7.5 ng/ml) and human sera (final concentration of 20%) were added to each well. Plates were incubated for 5 h at 37° C. to allow for NFkB-stimulated β-lactamase production. LiveBLAzer™ FRET B/G Substrate (CCF4-AM) was then added to assay for β-lactamase activity. Once CCFA-AM enters a cell, it is converted to negatively charged CCF4 by endogenous esterases. Excitation of this substrate at 409 nm leads to efficient FRET between the coumarin and fluorescein moieties, resulting in a green fluorescence detectable at 530 nm. The presence of β-lactamase leads to cleavage of CCF4 and results in a loss of FRET, resulting in a robust blue fluorescent signal detectable at 460 nm. Thus, activity of beta-lactamase (a marker of NFkB-promoter activity) is measured as a product to substrate ratio (blue/green fluorescence ratio: 460 nm/530 nm).

The next series deals with female BALB/c mice. Put plainly: Absence of gastrointestinal toxicity, gavage for 10 days. The series is classed as in vivo. Conditions: 5 mg/kg via gavage for 10 days. Here is the method: Compound 2 at 5 mg/kg (n=3) or vehicle (PEG 400:PBS1:1; n=2) was administered via gavage to female BALB/c mice for 10 days. […] Histology of cecum and colon were normal.
The diastereoisomeric mixture of Compounds 3a and 3b in PEG 400:PBS1:1 was administered to 7 week old female BALB/c mice (n=8) by gavage at 20 mg/kg daily for 10 days. There was no vehicle control group for comparison.
Compound 4 at 5 mg/kg (n=3) or vehicle (n=2, PEG:PBS 1:1) was administered via gavage to female BALB/c mice for 10 days. […] Histology of cecum and colon were normal.

In series [3] the test system is inflammed rat air pouches (serum-treated zymozan). Put plainly: Rat air pouch assay. The series is classed as in vivo, rats (Dark Agouti). Conditions: At 1 mM application.

Structures are written as SMILES.

With `O=C1c2ccc(O)c(Br)c2OCC1c1ccc(O)cc1` (centres unmarked) [Compound 1, 3-(4-hydroxyphenyl)-7-hydroxy-8-bromo-chroman-4-one], the “comparative anti-inflammatory activity between test compounds” value in the series on DSS-induced colitis (Experiment 1, 1 mg/kg) is given as “better anti-inflammatory activity”. Moreover, in the series with DSS-induced colitis (Experiment 1, 1 mg/kg oral), the “colon length compared with vehicle (trend), in words” value is “longer”; the “mean histology scores, in words” value was “less colitis”; the “ulceration of the colonic epithelium compared with vehicle” value is “statistically significant (p=0.0135) less ulceration”; the “maximum mean weight loss” value amounted to 2%. Moreover, the “day at which clinical signs became evident” value in the series on DSS-induced colitis (Experiment 1, 1 mg/kg oral) was 6 days. For the same compound, in the series with DSS-induced colitis, the “colitis, in words” value was “decreased colitis”; the “mean clinical score compared with vehicle, in words” value is “significantly lower”; the “day of switch from mean body weight loss to mean body weight gain” value was 10 days; the “inflammation, in words” value was “Inflammation was reduced”. For the same compound, the “colonic inflammation, in words” value in the series with DSS-induced colitis was “reduced colonic inflammation”. The “colon length versus control group not given DSS” value in the series on DSS-induced colitis (Experiment 2, pre-dosed 1 mg/kg) is “not statistically different in length from those of the control group”. In series [1] (ConA 10 μg/ml), the “PGE2 and TXB2 responses of colons cultured in the presence of ConA” value is “reduce these responses, although not significantly so”. The “TXB2 production by colons versus DSS + vehicle” value in series [1] (cultured in the absence of mitogenic stimulation, day 6 and day 9 (p<0.05)) was “less TXB2”. The “PGE2 production by colons versus DSS + vehicle” value in series [1] (cultured in the absence of mitogenic stimulation, day 9 and day 13) is on record as “less PGE2”. In series [2], the “Polymorphs in tissue sections (per 100 squares)” value (“Polymorphs … (per 100 squares)” for short) came out at 31.0 ± 7.25 per 100 squares and the “Leucocytes in lavage fluid (×10^−7)” value was 0.89 ± 0.42 ×10^−7.

As for `Oc1ccc(C2COc3c(ccc(O)c3O)C2O)cc1` (centres unmarked) [Compound 2], in the series with NFκB promoter activity, the “inhibition of NFκB compared to vehicle control” value was “significantly (p<0.001) inhibited”. In the series on female BALB/c mice, the adverse clinical signs entry is given as “no adverse clinical signs”; the “body weight changes versus vehicle” value is on record as “similar”; the “gross pathological changes at necropsy” value is on record as “no gross pathological changes”; the “histology of cecum and colon” value is on record as “normal”. In addition, the “number of polymorphs in the tissue sections, in words” value in series [3] is on record as “suppressed the number of polymorphs”. In addition, in the series with DSS-induced colitis, the “inflammation, in words” value is reported as “Inflammation was reduced” and the “colonic inflammation, in words” value was “reduced colonic inflammation”. Further, in the series on DSS-induced colitis (Experiment 2, day 22), the “body weight versus vehicle” value is recorded as “weighed significantly more than those receiving vehicle (p=0.0291)”. Moreover, in the series on DSS-induced colitis (Experiment 2, pre-dosed 1 mg/kg for 10 days), the “body weight loss associated with DSS-induced colonic inflammation” value was “reduced the body weight loss”. In addition, in series [2], the “Polymorphs … (per 100 squares)” value worked out at 14.3 ± 5.7 per 100 squares and the “Leucocytes in lavage fluid (×10^−7)” value was 0.68 ± 0.36 ×10^−7.

As for `O=C1c2cc(Cl)c(O)cc2OCC1c1ccc(O)cc1` (centres unmarked) [Compound 4], in the series on female BALB/c mice, the adverse clinical signs result is on record as “no adverse clinical signs”; the “body weight changes versus vehicle” value was “similar”; the “gross pathological changes at necropsy” value was “no gross pathological changes”; the “histology of cecum and colon” value was “normal”. In addition, the “number of polymorphs in the tissue sections, in words” value in series [3] is “suppressed the number of polymorphs”. In the series on DSS-induced colitis (Experiment 1, 1 mg/kg oral), the “colon length compared with vehicle (trend), in words” value is reported as “longer”; the “mean histology scores, in words” value is “less colitis”; the “maximum mean weight loss” value came out at 1%; the “day at which clinical signs became evident” value turned out to be 6 days. For the same compound, in the series with DSS-induced colitis, the “colitis, in words” value is given as “decreased colitis”; the “mean clinical score compared with vehicle, in words” value is listed as “significantly lower”; the “day of switch from mean body weight loss to mean body weight gain” value was determined as 12 days; the “colonic inflammation, in words” value is on record as “reduced colonic inflammation”. Besides, in series [2], the “Polymorphs … (per 100 squares)” value is 23.4 ± 8.8 per 100 squares and the “Leucocytes in lavage fluid (×10^−7)” value is recorded as 1.00 ± 0.38 ×10^−7.
